From ChEMBL document CHEMBL1201862, “PubChem BioAssay data set” (2004)
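Interpolation was linear, between the two tested concentrations surrounding the appropriate level; five concentrations were tested over 48 hours in 96-well plates. GI50: concentration for 50% inhibition of growth.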 Active and inactive are the calls of the source. Rule as the data show it: active = GI50 up to about 1.1 µM and inactive = higher.

How the values were obtained:
Test in all cases: inhibition of tumour cell growth, NCI panel, 48 h
[1] = test system: 786-0
[2] = test system: A498
[3] = test system: A549
[4] = test system: ACHN
[5] = test system: BT-549
[6] = test system: CAKI-1
[7] = test system: CCRF-CEM
[8] = test system: COLO 205
[9] = test system: DU-145
[10] = test system: EKVX
[11] = test system: HCC 2998
[12] = test system: HCT-116
[13] = test system: HCT-15
[14] = test system: HL-60
[15] = test system: HOP-62
[16] = test system: HOP-92
[17] = test system: HT-29
[18] = test system: Hs-578T
[19] = test system: IGROV-1
[20] = test system: K562
[21] = test system: KM12
[22] = test system: LOX IMVI
[23] = test system: M14
[24] = test system: MCF7
[25] = test system: MDA-MB-231
[26] = test system: MDA-MB-435
[27] = test system: MDA-N
[28] = test system: MOLT-4
[29] = test system: Malme-3M
[30] = test system: NCI-H226
[31] = test system: NCI-H23
[32] = test system: NCI-H460
[33] = test system: NCI-H522
[34] = test system: NCI/ADR-RES
[35] = test system: OVCAR-3
[36] = test system: OVCAR-4
[37] = test system: OVCAR-5
[38] = test system: OVCAR-8
[39] = test system: PC-3
[40] = test system: RPMI-8226
[41] = test system: RXF 393
[42] = test system: SF-268
[43] = test system: SF-295
[44] = test system: SF-539
[45] = test system: SK-MEL-28
[46] = test system: SK-MEL-2
[47] = test system: SK-MEL-5
[48] = test system: SK-OV-3
[49] = test system: SN12C
[50] = test system: SNB-19
[51] = test system: SNB-75
[52] = test system: SR
[53] = test system: SW-620
[54] = test system: T47D
[55] = test system: TK-10
[56] = test system: U-251
[57] = test system: UACC-257
[58] = test system: UACC-62
[59] = test system: UO-31

`CN(C)CCOc1ccc2c(c1)C/C(=C/c1ncc([N+](=O)[O-])n1C)C2=O` was tested, and the GI50 [1] was 1.82 µM (inactive), the GI50 [2] was 2.23 µM (inactive) and the GI50 [3] was 1.17 µM (inactive). For the same molecule, the GI50 [4] was 1.36 µM (inactive), the GI50 [5] was 1.04 µM (active) and the GI50 [6] was 2.64 µM (inactive). The GI50 [7] was 2.7 µM (inactive), the GI50 [8] was 1.56 µM (inactive) and the GI50 [9] was 3.13 µM (inactive). For the same molecule, the GI50 [10] was 3.61 µM (inactive), the GI50 [11] was 2.03 µM (inactive) and the GI50 [12] was 1.27 µM (inactive). The GI50 [13] was 0.377 µM, the GI50 [14] was 3.25 µM (inactive) and the GI50 [15] was 2.1 µM (inactive). For the same molecule, the GI50 [16] was 1.83 µM (inactive), the GI50 [17] was 1.35 µM (inactive) and the GI50 [18] was 12.9 µM (inactive). For the same molecule, the GI50 [19] was 0.233 µM (active), the GI50 [20] was 1.49 µM (inactive) and the GI50 [21] was 2.61 µM (inactive). For the same molecule, the GI50 [22] was 2.65 µM (inactive), the GI50 [23] was 2.29 µM (inactive) and the GI50 [24] was 0.703 µM (active). For the same molecule, the GI50 [25] was 1.91 µM (inactive), the GI50 [26] was 2.99 µM (inactive) and the GI50 [27] was 3.94 µM (inactive). The GI50 [28] was 1.21 µM (inactive), the GI50 [29] was 1.94 µM (inactive) and the GI50 [30] was 1.46 µM (inactive). For the same molecule, the GI50 [31] was 1 µM (active), the GI50 [32] was 0.508 µM (active) and the GI50 [33] was 0.918 µM (active). The GI50 [34] was 8.36 µM (inactive), the GI50 [35] was 2.11 µM (inactive) and the GI50 [36] was 1.53 µM (inactive). For the same molecule, the GI50 [37] was 3.51 µM (inactive), the GI50 [38] was 1.43 µM (inactive) and the GI50 [39] was 3.4 µM (inactive). The GI50 [40] was 1.37 µM (inactive), the GI50 [41] was 1.17 µM (inactive) and the GI50 [42] was 1.89 µM (inactive). For the same molecule, the GI50 [43] was 3.1 µM (inactive), the GI50 [44] was 3.97 µM (inactive) and the GI50 [45] was 17.6 µM (inactive). For the same molecule, the GI50 [46] was 1.67 µM (inactive), the GI50 [47] was 1.64 µM (inactive) and the GI50 [48] was 4.8 µM (inactive). The GI50 [49] was 2.58 µM (inactive), the GI50 [50] was 3.39 µM (inactive) and the GI50 [51] was 2.28 µM (inactive). The GI50 [52] was 0.242 µM (active), the GI50 [53] was 1.6 µM (inactive) and the GI50 [54] was 6.03 µM (inactive). For the same molecule, the GI50 [55] was 3.52 µM (inactive), the GI50 [56] was 3.51 µM (inactive) and the GI50 [57] was 3.79 µM (inactive). The GI50 [58] was 1.95 µM (inactive) and the GI50 [59] was 1.68 µM (inactive).
For `N=c1oc2ccc(Cl)cc2cc1C(=O)NCc1ccccc1`, the GI50 [1] was > 100 µM (inactive), the GI50 [2] was 63.5 µM (inactive) and the GI50 [3] was > 100 µM (inactive). The GI50 [4] was > 91.8 µM (inactive), the GI50 [5] was 23.7 µM (inactive) and the GI50 [6] was > 100 µM (inactive). For the same molecule, the GI50 [7] was 21.5 µM (inactive), the GI50 [8] was > 100 µM (inactive) and the GI50 [9] was > 100 µM (inactive). The GI50 [10] was > 100 µM (inactive), the GI50 [11] was > 100 µM (inactive) and the GI50 [12] was > 100 µM (inactive). The GI50 [13] was over 77.8 µM, the GI50 [14] was 11 µM (inactive) and the GI50 [15] was > 87.3 µM (inactive). For the same molecule, the GI50 [16] was 28.9 µM (inactive), the GI50 [17] was > 100 µM (inactive) and the GI50 [18] was 30.5 µM (inactive). The GI50 [19] was > 100 µM (inactive), the GI50 [20] was > 42 µM (inactive) and the GI50 [21] was 43.4 µM (inactive). The GI50 [22] was > 100 µM (inactive), the GI50 [23] was > 100 µM (inactive) and the GI50 [24] was > 100 µM (inactive). For the same molecule, the GI50 [25] was > 100 µM (inactive), the GI50 [26] was 78.3 µM (inactive) and the GI50 [27] was > 81.7 µM (inactive). For the same molecule, the GI50 [28] was 31.2 µM (inactive), the GI50 [29] was 18.4 µM (inactive) and the GI50 [30] was > 100 µM (inactive). The GI50 [31] was > 100 µM (inactive), the GI50 [32] was > 100 µM (inactive) and the GI50 [33] was 24.7 µM (inactive). For the same molecule, the GI50 [34] was 27.4 µM (inactive), the GI50 [35] was > 100 µM (inactive) and the GI50 [36] was > 100 µM (inactive). The GI50 [37] was > 100 µM (inactive), the GI50 [38] was > 100 µM (inactive) and the GI50 [39] was 98.9 µM (inactive). The GI50 [40] was > 89.3 µM (inactive), the GI50 [41] was 17.8 µM (inactive) and the GI50 [42] was > 100 µM (inactive). For the same molecule, the GI50 [43] was > 100 µM (inactive), the GI50 [44] was > 100 µM (inactive) and the GI50 [45] was > 100 µM (inactive). For the same molecule, the GI50 [46] was 51.1 µM (inactive), the GI50 [47] was > 100 µM (inactive) and the GI50 [48] was > 100 µM (inactive). For the same molecule, the GI50 [49] was > 100 µM (inactive), the GI50 [50] was > 100 µM (inactive) and the GI50 [51] was 22.4 µM (inactive). The GI50 [52] was > 57.1 µM (inactive), the GI50 [53] was > 100 µM (inactive) and the GI50 [54] was 39 µM (inactive). The GI50 [55] was > 100 µM (inactive), the GI50 [56] was > 86.3 µM (inactive) and the GI50 [57] was > 100 µM (inactive). For the same molecule, the GI50 [58] was 31.6 µM (inactive) and the GI50 [59] was > 61.7 µM (inactive).
